Measured values as given in PMC10975012, “The Active Glucuronide Metabolite of the Brain Protectant IMM-H004 with Poor Blood–Brain Barrier Permeability Demonstrates a High Partition in the Rat Brain via Multiple Mechanisms” (Pharmaceutics, 2024).

Tests used:
[1] = system: SH-SY5Y cells; test: In vitro metabolism in human brain cells (SH-SY5Y); assay type: in vitro ADME; details: IMM-H004 1–100 μmol/L
Procedure: SH-SY5Y, HEB, and hCMEC/D3 cells were utilized to investigate the in vitro metabolism of IMM-H004 and IMM-H004G in the brain. SH-SY5Y and HEB cells were cultured routinely in Dulbecco’s modified Eagle’s medium (DMEM) containing 10% fetal bovine serum and a 100 U/mL penicillin–100 μg/mL streptomycin solution. hCMEC/D3 cells were seeded on collagen type I coated 24-well plates and cultured in EndoGRO™-MV complete medium following the manufacturer’s guidelines. The cells were incubated at 37 °C, with 5% CO2, and were maintained in a humidified environment. Once the confluence reached 70–80%, the cells were digested using a 0.25% trypsin–EDTA solution, centrifuged at 200× g for 5 min, and then resuspended in a fresh culture medium. For each experiment, after seeding and 24 h incubation, the cells were washed twice with a prewarmed culture medium, and then IMM-H004 or IMM-H004G (1–100 μmol/L) dissolved in the culture medium was added. Incubation was carried out at 37 °C for 5 h or 24 h. After incubation, the supernatants were collected. Subsequently, the cells were washed with cold HBSS three times and lysed in a RIPA lysis buffer (Beyotime Inc., Shanghai, China). The concentrations of IMM-H004 and IMM-H004G were determined by liquid chromatography with tandem mass spectrometry (LC-MS/MS).

[2] = target: T1, OATP2B1 (Homo sapiens, UniProt O94956); test: Uptake in MDCKⅡ-OATP2B1 overexpressing cells; assay type: cell-based; details: MDCKⅡ-OATP2B1 vs mock, 10 min; IMM-H004G 10 μmol/L
T1 construct: host or cells: MDCKII
T1 sequence (O94956 1-709): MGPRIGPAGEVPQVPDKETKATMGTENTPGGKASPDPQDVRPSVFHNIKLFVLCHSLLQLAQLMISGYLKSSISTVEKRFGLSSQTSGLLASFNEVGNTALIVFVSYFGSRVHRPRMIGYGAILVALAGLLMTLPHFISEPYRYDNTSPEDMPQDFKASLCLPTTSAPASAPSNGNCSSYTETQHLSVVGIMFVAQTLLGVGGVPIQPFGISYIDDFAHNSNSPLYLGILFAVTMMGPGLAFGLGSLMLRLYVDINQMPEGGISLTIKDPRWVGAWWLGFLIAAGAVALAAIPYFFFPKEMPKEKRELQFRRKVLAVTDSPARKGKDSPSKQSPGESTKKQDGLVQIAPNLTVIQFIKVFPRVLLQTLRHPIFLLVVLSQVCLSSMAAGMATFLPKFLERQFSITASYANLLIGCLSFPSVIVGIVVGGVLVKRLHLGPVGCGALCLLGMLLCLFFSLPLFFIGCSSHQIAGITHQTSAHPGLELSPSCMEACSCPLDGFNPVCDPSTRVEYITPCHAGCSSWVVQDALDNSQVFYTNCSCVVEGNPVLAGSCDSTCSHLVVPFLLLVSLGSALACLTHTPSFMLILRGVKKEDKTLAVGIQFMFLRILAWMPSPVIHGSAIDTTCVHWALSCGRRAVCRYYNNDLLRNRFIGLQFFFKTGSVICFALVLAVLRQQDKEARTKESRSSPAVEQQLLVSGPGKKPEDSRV
Text: CHO cells and MDCKⅡ cells were stably transfected with lentiviruses carrying human SCLO1A2 (encoding OATP1A2) and SCLO2B1 (encoding OATP2B1), respectively. Cell transfected with lentiviruses carrying empty vectors served as control. Lentiviral plasmid packages were obtained from OBiO Technology (Shanghai, China), and procedures followed the instructions of the virus manual. Stably transfected cells were routinely grown in a 100 mm dish in DMEM with 10% fetal bovine serum. Prior to the experiments, the seeding density of the overexpressing cells in 24-well plates was 4 × 10^5 cells per well, and the medium was supplemented with 2 mM sodium butyrate for 24 h. The cultured cells were washed twice with prewarmed HBSS after removing the medium and then treated with 10 μmol/L IMM-H004G and 100 μmol/L rifampicin (or an equal amount of solvent dimethyl sulfoxide) for 10 min. After incubation, the cells were washed four times with cold HBSS. Follow-up sample processing procedures were as described in Section 2.3.1. E17βG (5 μmol/L) and rosuvastatin (10 μmol/L) were used as positive substrates in CHO-OATP1A2 and MDCKⅡ-OATP2B1 cells, respectively. The MDCKⅡ-MDR1 cells were previously established by our laboratory.

[3] = target: T2, OATP1B3 (Homo sapiens, UniProt Q9NPD5); test: Uptake in MDCKⅡ-OATP1B3 cells; assay type: cell-based; details: MDCKⅡ-OATP1B3, 30, 60 µmol/L, 20 or 40 min
T2 construct: expressed in transfected cells; host or cells: MDCKII
T2 sequence (Q9NPD5 1-702): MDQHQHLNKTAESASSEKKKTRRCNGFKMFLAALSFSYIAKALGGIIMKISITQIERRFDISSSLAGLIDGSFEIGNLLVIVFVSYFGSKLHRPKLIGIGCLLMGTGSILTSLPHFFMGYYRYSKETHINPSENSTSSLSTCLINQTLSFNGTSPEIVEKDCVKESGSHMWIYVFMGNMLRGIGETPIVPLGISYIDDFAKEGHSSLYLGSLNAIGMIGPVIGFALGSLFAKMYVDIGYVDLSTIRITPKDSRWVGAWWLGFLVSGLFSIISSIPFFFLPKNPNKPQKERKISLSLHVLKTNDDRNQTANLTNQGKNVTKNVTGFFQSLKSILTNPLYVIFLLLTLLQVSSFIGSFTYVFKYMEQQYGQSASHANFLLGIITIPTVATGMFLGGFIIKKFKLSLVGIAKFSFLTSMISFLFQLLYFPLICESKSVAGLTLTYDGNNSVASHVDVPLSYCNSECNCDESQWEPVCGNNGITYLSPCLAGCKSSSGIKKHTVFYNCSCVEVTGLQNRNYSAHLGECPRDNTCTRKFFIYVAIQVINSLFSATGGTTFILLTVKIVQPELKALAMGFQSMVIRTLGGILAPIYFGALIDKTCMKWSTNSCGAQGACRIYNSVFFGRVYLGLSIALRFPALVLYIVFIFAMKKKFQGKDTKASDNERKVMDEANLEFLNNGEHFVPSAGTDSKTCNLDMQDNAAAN
Procedure: Figure S4 Uptake of IMM-H004G in MDCKⅡ-OATP1B1 and MDCKⅡ-OATP1B3 cells. (a)
RSV (rosuvastatin, 30 µmol/L) is used as a positive group in MDCKⅡ-OATP1B1 cells. (b)
E17βG (estradiol-17β-glucuronide, 5 µmol/L) is used as a positive group in
MDCKⅡ-OATP1B3 cells. (c) IMM-H004G (30, 60 µmol/L) was incubated with
MDCKⅡ-OATP1B1 and MDCKⅡ-OATP1B3 cells for 20 or 40 min. The OATP
pan-inhibitor CsA (cyclosporin A) is 10 µmol/L. n=3 for positive substrates, and n=2 for
IMM-H004G. ***p < 0.001, **p < 0.01, *p < 0.05 vs. control group. ns, not significant.
(1 picture or pasted object on this page, not shown here)

| production of IMM-H004G from IMM-H004 [1] | uptake increase in OATP2B1-overexpressing cells compared to control cells [2] [fold] | uptake increase in OATP1B3-overexpressing cells compared to control cells [3] | SMILES |
| --- | --- | --- | --- |
| not detected | – | – | COc1cc(O)cc2oc(=O)c(N3CCN(C)CC3)c(C)c12 [IMM-H004] |
| – | 190 | did not exceed a tenfold increase | COc1cc(OC2OC(C(=O)O)C(O)C(O)C2O)cc2oc(=O)c(N3CCN(C)CC3)c(C)c12 (stereo not drawn) [IMM-H004G] |
